From ChEMBL document CHEMBL1201862, “PubChem BioAssay data set” (2004)
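96-well plates; 48 h exposure; 5 concentrations. Endpoints by linear interpolation between flanking doses. Not reached: highest tested concentration assigned. At the GI50, growth is halved.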 Calls of active or inactive are those of the source. Cut-off read from the data, not from the text of the source: active = GI50 up to about 1.1 µM and inactive = higher.

Assays:
Experiment in all cases: NCI-60 cell line screen, 48 h
[1] = test system: MOLT-4
[2] = test system: SF-295
[3] = test system: NCI-H226
[4] = test system: TK-10
[5] = test system: SK-OV-3
[6] = test system: OVCAR-3
[7] = test system: MCF7
[8] = test system: MDA-MB-435
[9] = test system: SK-MEL-5
[10] = test system: COLO 205
[11] = test system: SN12C
[12] = test system: SK-MEL-2
[13] = test system: A549
[14] = test system: 786-0
[15] = test system: HCT-116
[16] = test system: SNB-75
[17] = test system: HCC 2998
[18] = test system: MDA-N
[19] = test system: DU-145
[20] = test system: Malme-3M

SMILES: CC(/C=N/N(C)C1=NCCCN1)=N/N(C)C1=NCCCN1
- GI50 [1]: > 100 µM (inactive)
- GI50 [2]: > 100 µM (inactive)
- GI50 [3]: > 100 µM (inactive)
- GI50 [4]: > 100 µM (inactive)
- GI50 [5]: > 100 µM (inactive)
- GI50 [6]: > 100 µM (inactive)
- GI50 [7]: > 100 µM (inactive)
- GI50 [8]: > 100 µM (inactive)
- GI50 [9]: > 100 µM (inactive)
- GI50 [10]: > 100 µM (inactive)
- GI50 [11]: > 100 µM (inactive)
- GI50 [12]: > 100 µM (inactive)
- GI50 [13]: > 100 µM (inactive)
- GI50 [14]: > 100 µM (inactive)
- GI50 [15]: > 100 µM (inactive)
- GI50 [16]: > 100 µM (inactive)
- GI50 [17]: > 100 µM (inactive)
- GI50 [18]: > 100 µM (inactive)
- GI50 [19]: > 100 µM (inactive)
- GI50 [20]: > 100 µM (inactive)

SMILES: C(=N\N=C1NCCN1)/c1ccc2ccccc2c1
- GI50 [1]: 10.2 µM (inactive)
- GI50 [2]: 14.9 µM (inactive)
- GI50 [3]: 21 µM (inactive)
- GI50 [4]: 12.4 µM (inactive)
- GI50 [5]: 10.8 µM (inactive)
- GI50 [6]: 16.1 µM (inactive)
- GI50 [7]: 15.3 µM (inactive)
- GI50 [8]: 15.6 µM (inactive)
- GI50 [9]: 13.2 µM (inactive)
- GI50 [10]: 6.84 µM (inactive)
- GI50 [11]: 16.9 µM (inactive)
- GI50 [12]: 19.5 µM (inactive)
- GI50 [13]: 14.4 µM (inactive)
- GI50 [14]: 12.8 µM (inactive)
- GI50 [15]: 15.4 µM (inactive)
- GI50 [16]: 29.5 µM (inactive)
- GI50 [17]: 12.7 µM (inactive)
- GI50 [18]: 14.1 µM (inactive)
- GI50 [19]: 31.2 µM (inactive)
- GI50 [20]: 14.2 µM (inactive)

SMILES: C/C(=N\N=C(/S)N1CC2CCC(CC2)C1)c1cccc[n+]1[O-]
- GI50 [1]: 0.373 µM (active)
- GI50 [2]: 4.43 µM (inactive)
- GI50 [3]: 3.41 µM (inactive)
- GI50 [4]: 20.4 µM (inactive)
- GI50 [5]: 35.8 µM (inactive)
- GI50 [6]: 0.044 µM (active)
- GI50 [7]: 5.7 µM (inactive)
- GI50 [8]: 28.5 µM (inactive)
- GI50 [9]: 6.21 µM (inactive)
- GI50 [10]: 3.66 µM (inactive)
- GI50 [11]: 7.67 µM (inactive)
- GI50 [12]: 15.3 µM (inactive)
- GI50 [13]: 4.98 µM (inactive)
- GI50 [14]: 6.9 µM (inactive)
- GI50 [15]: 3.61 µM (inactive)
- GI50 [16]: 11.5 µM (inactive)
- GI50 [17]: 10.8 µM (inactive)
- GI50 [18]: 14.2 µM (inactive)
- GI50 [19]: 46.8 µM (inactive)
- GI50 [20]: 12.5 µM (inactive)

SMILES: CCC/C(Cl)=N\OC(=O)Nc1ccc(Br)cc1
- GI50 [1]: 2.55 µM (inactive)
- GI50 [2]: 14.9 µM (inactive)
- GI50 [3]: 21.6 µM (inactive)
- GI50 [4]: 14.2 µM (inactive)
- GI50 [5]: 16.8 µM (inactive)
- GI50 [6]: 6.22 µM (inactive)
- GI50 [7]: 6.47 µM (inactive)
- GI50 [8]: 14.5 µM (inactive)
- GI50 [9]: 14.6 µM (inactive)
- GI50 [10]: 2.73 µM (inactive)
- GI50 [11]: 14 µM (inactive)
- GI50 [12]: 15 µM (inactive)
- GI50 [13]: 18.4 µM (inactive)
- GI50 [14]: 7.24 µM (inactive)
- GI50 [15]: 9.48 µM (inactive)
- GI50 [16]: 13.5 µM (inactive)
- GI50 [17]: 17.3 µM (inactive)
- GI50 [18]: 13.2 µM (inactive)
- GI50 [19]: 13.8 µM (inactive)
- GI50 [20]: 5.73 µM (inactive)

SMILES: O=C1C(C(c2ccc([N+](=O)[O-])cc2)N2CCOCC2)=C(O)C(c2ccccc2)N1c1ccccc1 (stereo not given)
- GI50 [1]: > 10 µM (inactive)
- GI50 [2]: > 10 µM (inactive)
- GI50 [3]: > 10 µM (inactive)
- GI50 [4]: > 10 µM (inactive)
- GI50 [5]: > 10 µM (inactive)
- GI50 [6]: > 10 µM (inactive)
- GI50 [7]: > 10 µM (inactive)
- GI50 [8]: > 10 µM (inactive)
- GI50 [9]: > 10 µM (inactive)
- GI50 [10]: > 10 µM (inactive)
- GI50 [11]: > 10 µM (inactive)
- GI50 [12]: > 10 µM (inactive)
- GI50 [13]: > 10 µM (inactive)
- GI50 [14]: > 10 µM (inactive)
- GI50 [15]: > 10 µM (inactive)
- GI50 [16]: 6.14 µM (inactive)
- GI50 [17]: > 10 µM (inactive)
- GI50 [18]: > 10 µM (inactive)
- GI50 [19]: > 10 µM (inactive)
- GI50 [20]: > 10 µM (inactive)

SMILES: CCOC1SC(SC)=NN1C(=O)C(OC(C)=O)C(OC(C)=O)C(OC(C)=O)C(OC(C)=O)C(=O)N1N=C(SC)SC1OCC (stereo not given)
- GI50 [1]: > 100 µM (inactive)
- GI50 [2]: > 100 µM (inactive)
- GI50 [3]: > 100 µM (inactive)
- GI50 [4]: > 100 µM (inactive)
- GI50 [5]: > 100 µM (inactive)
- GI50 [6]: > 100 µM (inactive)
- GI50 [7]: > 100 µM (inactive)
- GI50 [8]: > 100 µM (inactive)
- GI50 [9]: > 100 µM (inactive)
- GI50 [10]: > 100 µM (inactive)
- GI50 [11]: > 100 µM (inactive)
- GI50 [12]: > 100 µM (inactive)
- GI50 [13]: > 100 µM (inactive)
- GI50 [14]: 62.1 µM (inactive)
- GI50 [15]: 88.5 µM (inactive)
- GI50 [16]: 48.3 µM (inactive)
- GI50 [17]: > 100 µM (inactive)
- GI50 [18]: > 100 µM (inactive)
- GI50 [19]: > 100 µM (inactive)
- GI50 [20]: > 100 µM (inactive)

SMILES: CC1=Nn2c(nc3sc4c(c3c2=O)CCCC4)SC1
- GI50 [1]: 44.2 µM (inactive)
- GI50 [2]: > 100 µM (inactive)
- GI50 [3]: > 100 µM (inactive)
- GI50 [4]: 53.7 µM (inactive)
- GI50 [5]: > 100 µM (inactive)
- GI50 [6]: 76 µM (inactive)
- GI50 [7]: > 77.6 µM (inactive)
- GI50 [8]: > 77.1 µM (inactive)
- GI50 [9]: 62.4 µM (inactive)
- GI50 [10]: > 87.9 µM (inactive)
- GI50 [11]: > 78.5 µM (inactive)
- GI50 [12]: > 100 µM (inactive)
- GI50 [13]: > 83.6 µM (inactive)
- GI50 [14]: > 81.3 µM (inactive)
- GI50 [15]: 82 µM (inactive)
- GI50 [16]: 64.9 µM (inactive)
- GI50 [17]: 99.5 µM (inactive)
- GI50 [18]: 28.4 µM (inactive)
- GI50 [19]: > 86.1 µM (inactive)
- GI50 [20]: > 94.2 µM (inactive)
